Test results from ChEMBL document CHEMBL5579851, “Synthesis and antifungal evaluation of novel triazole derivatives bearing a pyrazole-methoxyl moiety” (Eur J Med Chem, 2024).

Columns and labels:
[1] = Cytotoxicity against HUVEC cells assessed as cell viability at 128 ug/ml incubated for 24 hrs by CCK-8 assay relative to control; type: toxicity, cell-based; settings: human, at 128 µg/mL, read-out: Activity
Saccharomyces cerevisiae [2] = assay: Antifungal activity against recombinant Saccharomyces cerevisiae Y2767 overexpressing CauErg11 assessed as inhibition of fungal growth incubated for 48 hrs by CLSI based broth microdilution assay; type: functional
Saccharomyces cerevisiae [3] = assay: Antifungal activity against recombinant Saccharomyces cerevisiae Y2462 overexpressing ScErg11/ScNcp1 assessed as inhibition of fungal growth incubated for 48 hrs by CLSI based broth microdilution assay; type: functional
Saccharomyces cerevisiae [4] = assay: Antifungal activity against recombinant Saccharomyces cerevisiae Y2711 overexpressing CnErg11 assessed as inhibition of fungal growth incubated for 48 hrs by CLSI based broth microdilution assay; type: functional
Saccharomyces cerevisiae [5] = assay: Antifungal activity against recombinant Saccharomyces cerevisiae Y2301 overexpressing ScErg11 Y140F mutant assessed as inhibition of fungal growth incubated for 48 hrs by CLSI based broth microdilution assay; type: functional
Saccharomyces cerevisiae [6] = assay: Antifungal activity against recombinant Saccharomyces cerevisiae Y2513 overexpressing ScErg11 Y140H mutant assessed as inhibition of fungal growth incubated for 48 hrs by CLSI based broth microdilution assay; type: functional
Saccharomyces cerevisiae [7] = assay: Antifungal activity against recombinant Saccharomyces cerevisiae Y2768 overexpressing CauErg11 T132F mutant assessed as inhibition of fungal growth incubated for 48 hrs by CLSI based broth microdilution assay; type: functional
Saccharomyces cerevisiae [8] = assay: Antifungal activity against recombinant Saccharomyces cerevisiae Y2459 overexpressing CaErg11/CaCpr assessed as inhibition of fungal growth incubated for 48 hrs by CLSI based broth microdilution assay; type: functional
Saccharomyces cerevisiae [9] = assay: Antifungal activity against recombinant Saccharomyces cerevisiae Y2411 overexpressing ScErg11 assessed as inhibition of fungal growth incubated for 48 hrs by CLSI based broth microdilution assay; type: functional
Saccharomyces cerevisiae [10] = assay: Antifungal activity against recombinant Saccharomyces cerevisiae Y2766 overexpressing CauCdr1 assessed as inhibition of fungal growth incubated for 48 hrs by CLSI based broth microdilution assay; type: functional
Saccharomyces cerevisiae [11] = assay: Antifungal activity against recombinant Saccharomyces cerevisiae Y2374 overexpressing CgErg11 assessed as inhibition of fungal growth incubated for 48 hrs by CLSI based broth microdilution assay; type: functional
Saccharomyces cerevisiae [12] = assay: Antifungal activity against recombinant Saccharomyces cerevisiae Y570 overexpressing CaCdr1 assessed as inhibition of fungal growth incubated for 48 hrs by CLSI based broth microdilution assay; type: functional
Saccharomyces cerevisiae [13] = assay: Antifungal activity against recombinant Saccharomyces cerevisiae Y2721 overexpressing CpErg11/CpCpr assessed as inhibition of fungal growth incubated for 48 hrs by CLSI based broth microdilution assay; type: functional
Saccharomyces cerevisiae [14] = assay: Antifungal activity against recombinant Saccharomyces cerevisiae Y525 overexpressing CaMdr1 assessed as inhibition of fungal growth incubated for 48 hrs by CLSI based broth microdilution assay; type: functional
Saccharomyces cerevisiae [15] = assay: Antifungal activity against recombinant Saccharomyces cerevisiae Y2300 overexpressing ScErg11 assessed as inhibition of fungal growth incubated for 48 hrs by CLSI based broth microdilution assay; type: functional
Saccharomyces cerevisiae [16] = assay: Antifungal activity against recombinant Saccharomyces cerevisiae Y2769 overexpressing CauErg11 K143R mutant assessed as inhibition of fungal growth incubated for 48 hrs by CLSI based broth microdilution assay; type: functional
Saccharomyces cerevisiae [17] = assay: Antifungal activity against recombinant Saccharomyces cerevisiae Y2716 overexpressing CpErg11 Y132F mutant/ CpCpr assessed as inhibition of fungal growth incubated for 48 hrs by CLSI based broth microdilution assay; type: functional
Saccharomyces cerevisiae [18] = assay: Antifungal activity against recombinant Saccharomyces cerevisiae Y2765 overexpressing CauMdr1 assessed as inhibition of fungal growth incubated for 48 hrs by CLSI based broth microdilution assay; type: functional

Structure (SMILES)	viability at 24 h, 128 ug/ml [1]	MIC (Saccharomyces cerevisiae [2])	MIC (Saccharomyces cerevisiae [3])	MIC (Saccharomyces cerevisiae [4])	MIC (Saccharomyces cerevisiae [5])	MIC (Saccharomyces cerevisiae [6])	MIC (Saccharomyces cerevisiae [7])	MIC (Saccharomyces cerevisiae [8])	MIC (Saccharomyces cerevisiae [9])	MIC (Saccharomyces cerevisiae [10])	MIC (Saccharomyces cerevisiae [11])	MIC (Saccharomyces cerevisiae [12])	MIC (Saccharomyces cerevisiae [13])	MIC (Saccharomyces cerevisiae [14])	MIC (Saccharomyces cerevisiae [15])	MIC (Saccharomyces cerevisiae [16])	MIC (Saccharomyces cerevisiae [17])	MIC (Saccharomyces cerevisiae [18])
C[C@@H]1[C@H](O)[C@@H](C)/C=C/C=C/C=C/C=C/C=C/C=C/C=C/[C@H](O[C@@H]2O[C@H](C)[C@@H](O)[C@H](N)[C@@H]2O)C[C@@H]2O[C@](O)(C[C@@H](O)C[C@@H](O)[C@H](O)CC[C@@H](O)C[C@@H](O)CC(=O)O[C@H]1C)C[C@H](O)[C@H]2C(=O)O [AMPHOTERICIN B]	30.5%																	
C[C@@H](c1ncncc1F)[C@](O)(Cn1cncn1)c1ccc(F)cc1F [VORICONAZOLE]		0.0313 µg/mL	0.063 µg/mL	0.008 µg/mL	0.0313 µg/mL	0.0313 µg/mL	0.25 µg/mL	0.016 µg/mL	0.008 µg/mL	2 µg/mL	0.0313 µg/mL	8 µg/mL	0.0313 µg/mL	0.5 µg/mL	0.0313 µg/mL	0.063 µg/mL	0.25 µg/mL	1 µg/mL
CC(=O)N1CCN(c2ccc(OCC3COC(Cn4ccnc4)(c4ccc(Cl)cc4Cl)O3)cc2)CC1 (stereo not given) [KETOCONAZOLE]		0.5 µg/mL	1 µg/mL	8 µg/mL	2 µg/mL	1 µg/mL	1 µg/mL	0.5 µg/mL	0.25 µg/mL	8 µg/mL	0.5 µg/mL	64 µg/mL	0.5 µg/mL	0.25 µg/mL	1 µg/mL	1 µg/mL	2 µg/mL	0.25 µg/mL
